{"source": "patent US9157104B2", "about": "“Method to improve phosphate solubilization in plants” (Consiglio Nazionale delle Ricerche, priority 2009, dated 2015)", "key": {"[1]": {"system": "pho operon genes in S. meliloti cells", "experiment": "Quantitative RT-PCR analysis of pho operon genes", "type": "cell-based", "settings": "P-sufficient (13 mM K-phosphate); vs untreated 1021 cells; compounds 0.5 mM, 3 hours", "protocol": "FIG. S1. Quantitative RT-PCR analysis of pho operon genes in S. meliloti cells under P-sufficient conditions (13 mM K-phosphate). The relative expression level was >1 for genes more highly expressed in RD64 and in 1021 cells treated for 3 hours with 0.5 mM IAA, Ind, Trp, ICA and 2,4-D. The relative expression level was <1 for genes more highly expressed in 1021 cells (control). Error bars represent the standard deviation from three independent biological experiments.\nFIG. 1. Quantitative RT-PCR analysis of pho operon genes expression in S. meliloti cells under P-starving conditions. The relative expression level was >1 for genes more highly expressed in RD64 and in 1021 cells treated for 3 hours with 0.5 mM IAA, Ind, Trp, ICA and 2,4-D. The relative expression level was <1 for genes more highly expressed in 1021 cells (control). Error bars represent the standard deviation from five independent biological experiments (p<0.05).\nTotal RNA from P-sufficient and P-starved cells was isolated as previously described (5). cDNA were synthesized with the StrataScript™ reverse transcription reagents (Stratagene) and random hexamers as primers. Quantitative PCR was performed with the Power SYBR PCR Master Mix (Applied Biosystems). Reactions were run on the iCycler iQ (Bio-Rad). The thermo cycling condition were: 15 min at 95° C., 40 cycles of denaturation at 95° C. for 20 s, annealing (20 s) and extension (35 s) at 72° C. Specific primer pairs, designed using the Primer3 software, are shown.\nsmc02641 and smc00128 were used as housekeeping genes for data normalization in the comparative Ct method as previously described (8). Phosphatase Activity"}, "[2]": {"system": "S. meliloti 1021", "experiment": "Microarray gene expression of 1021 cells treated with 0.5 mM compound;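 as to all read-outs here: cells were harvested 3 h after the start of each treatment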", "settings": "P-sufficient (13 mM); for pho genes among those significantly affected (microarray): 1021 + 0.5 mM compound vs untreated 1021", "quoted_text": "For P starvation experiments, cells of 1021 wild-type and RD64 strains were grown at 30° C. to mid exponential phase (OD600=0.6) in RMM broth containing 1% (w/v) mannitol as carbon source and 13 mM P, washed with RMM containing 0 P, resuspended in the same medium and then divided into three cultures. No P (−P), 1.0 mM P (P-starved cells) or 13 mM P (+P cells also named P-sufficient cells) was added into the three cultures, respectively. The P-starved and P-sufficient 1021 wild type cells were treated for 3.0 hours with 0.5 mM IAA. […] To rule out that this bacteria could be partially starved for Trp, RD64 cells were also treated with 0.5 mM Trp and used for microarrays and RT-PCR analyses. […] After 3 hours of each treatment, cell batches were collected, freezed and stored at −80° C. for use in experiments."}, "[3]": {"settings": "1021 + 0.5 mM ICA vs untreated 1021"}}, "data": [{"molecule": "O=C(O)c1c[nH]c2ccccc12", "note": "[ICA, indole-3-carboxylic acid]", "values": [{"measurement": "phoB regulatory gene expression (qRT-PCR)", "setting": "[1]", "value": "unaffected"}, {"measurement": "M (log2 ratio of intensities) SMa1077 nex18", "setting": "[2]; [3]", "value": 0.9938}, {"measurement": "M (log2 ratio of intensities) SMa1118 hspC2", "setting": "[2]; [3]", "value": 1.111}, {"measurement": "M (log2 ratio of intensities) SMa1128 degP4", "setting": "[2]; [3]", "value": 1.148}, {"measurement": "M (log2 ratio of intensities) SMa1306 virB9", "setting": "[2]; [3]", "value": 0.9404}, {"measurement": "M (log2 ratio of intensities) SMb21183 htpG", "setting": "[2]; [3]", "value": 0.7619}, {"measurement": "M (log2 ratio of intensities) SMc00323 rpsO", "setting": "[2]; [3]", "value": "−0.722"}, {"measurement": "M (log2 ratio of intensities) SMc00335 rpsA", "setting": "[2]; [3]", "value": "−0.7763"}, {"measurement": "M (log2 ratio of intensities) SMc00514 smc00514", "setting": "[2]; [3]", "value": 0.8721}, {"measurement": "M (log2 ratio of intensities) SMc00537 smc00537", "setting": "[2]; [3]", "value": 0.9583}, {"measurement": "M (log2 ratio of intensities) SMc00868 atpF", "setting": "[2]; [3]", "value": "−0.8306"}, {"measurement": "M (log2 ratio of intensities) SMc00912 groES1", "setting": "[2]; [3]", "value": "−1.491"}, {"measurement": "M (log2 ratio of intensities) SMc00913 groEL1", "setting": "[2]; [3]", "value": "−0.8349"}, {"measurement": "M (log2 ratio of intensities) SMc01169 ald", "setting": "[2]; [3]", "value": 1.71}, {"measurement": "M (log2 ratio of intensities) SMc01309 rplC", "setting": "[2]; [3]", "value": "−0.7558"}, {"measurement": "M (log2 ratio of intensities) SMc01326 tufB", "setting": "[2]; [3]", "value": "−0.8768"}, {"measurement": "M (log2 ratio of intensities) SMc01534 smc01534", "setting": "[2]; [3]", "value": 0.9277}, {"measurement": "M (log2 ratio of intensities) SMc01793 smc01793", "setting": "[2]; [3]", "value": "−0.7625"}, {"measurement": "M (log2 ratio of intensities) SMc02498 atpH", "setting": "[2]; [3]", "value": "−0.7281"}, {"measurement": "M (log2 ratio of intensities) SMc02603 smc02603", "setting": "[2]; [3]", "value": 1.484}, {"measurement": "M (log2 ratio of intensities) SMc03030 flgG", "setting": "[2]; [3]", "value": "−0.7501"}, {"measurement": "M (log2 ratio of intensities) SMc03037 flaA", "setting": "[2]; [3]", "value": "−0.7114"}, {"measurement": "M (log2 ratio of intensities) SMc03168 smc03168", "setting": "[2]; [3]", "value": 1.005}, {"measurement": "M (log2 ratio of intensities) SMc03253 smc03253", "setting": "[2]; [3]", "value": 1.14}, {"measurement": "M (log2 ratio of intensities) SMc03829 smc03829", "setting": "[2]; [3]", "value": 0.9065}, {"measurement": "M (log2 ratio of intensities) SMc04040 ibpA", "setting": "[2]; [3]", "value": 1.474}, {"measurement": "M (log2 ratio of intensities) SMc04114 pilA1", "setting": "[2]; [3]", "value": "−0.7274"}, {"measurement": "M (log2 ratio of intensities) SMc04140 smc04140", "setting": "[2]; [3]", "value": 1.126}, {"measurement": "M (log2 ratio of intensities) SMc04307 cyaD2", "setting": "[2]; [3]", "value": 1.012}, {"measurement": "pho genes among those significantly affected (microarray)", "setting": "[2]", "value": "did not find any pho genes"}]}, {"molecule": "O=C(O)COc1ccc(Cl)cc1Cl", "note": "[2,4-D, 2,4-dichlorophenoxyacetic acid]", "values": [{"measurement": "phoB regulatory gene expression (qRT-PCR)", "setting": "[1]", "value": "unaffected"}, {"measurement": "pho genes among those significantly affected (microarray)", "setting": "[2]", "value": "did not find any pho genes"}, {"measurement": "M (log2 ratio of intensities) SMa1077 nex18", "setting": "[2]; 1021 + 2,4-D vs untreated 1021", "value": 2.581}, {"measurement": "M (log2 ratio of intensities) SMa1128 degP4", "setting": "[2]; 1021 + 2,4-D vs untreated 1021", "value": 1.552}, {"measurement": "M (log2 ratio of intensities) SMb21221 smb21221", "setting": "[2]; 1021 + 2,4-D vs untreated 1021", "value": 1.027}, {"measurement": "M (log2 ratio of intensities) SMc00151 gph1", "setting": "[2]; 1021 + 2,4-D vs untreated 1021", "value": "−0.8713"}, {"measurement": "M (log2 ratio of intensities) SMc00335 rpsA", "setting": "[2]; 1021 + 2,4-D vs untreated 1021", "value": "−0.7145"}, {"measurement": "M (log2 ratio of intensities) SMc00363 rpm1", "setting": "[2]; 1021 + 2,4-D vs untreated 1021", "value": "−0.8021"}, {"measurement": "M (log2 ratio of intensities) SMc00591 smc00591", "setting": "[2]; 1021 + 2,4-D vs untreated 1021", "value": 0.8629}, {"measurement": "M (log2 ratio of intensities) SMc00869 atpF2", "setting": "[2]; 1021 + 2,4-D vs untreated 1021", "value": "−1.318"}, {"measurement": "M (log2 ratio of intensities) SMc00912 groES1", "setting": "[2]; 1021 + 2,4-D vs untreated 1021", "value": "−1.272"}, {"measurement": "M (log2 ratio of intensities) SMc01214 smc01214", "setting": "[2]; 1021 + 2,4-D vs untreated 1021", "value": "−1.039"}, {"measurement": "M (log2 ratio of intensities) SMc01291 rpmD", "setting": "[2]; 1021 + 2,4-D vs untreated 1021", "value": "−0.9964"}, {"measurement": "M (log2 ratio of intensities) SMc01298 rplX", "setting": "[2]; 1021 + 2,4-D vs untreated 1021", "value": "−1.26"}, {"measurement": "M (log2 ratio of intensities) SMc01299 rplN", "setting": "[2]; 1021 + 2,4-D vs untreated 1021", "value": "−1.587"}, {"measurement": "M (log2 ratio of intensities) SMc01300 rpsQ", "setting": "[2]; 1021 + 2,4-D vs untreated 1021", "value": "−0.9524"}, {"measurement": "M (log2 ratio of intensities) SMc01301 rpmC", "setting": "[2]; 1021 + 2,4-D vs untreated 1021", "value": "−2.007"}, {"measurement": "M (log2 ratio of intensities) SMc01319 rplJ", "setting": "[2]; 1021 + 2,4-D vs untreated 1021", "value": "−1.788"}, {"measurement": "M (log2 ratio of intensities) SMc01326 tufB", "setting": "[2]; 1021 + 2,4-D vs untreated 1021", "value": "−1.664"}, {"measurement": "M (log2 ratio of intensities) SMc01858 smc01858", "setting": "[2]; 1021 + 2,4-D vs untreated 1021", "value": "−1.083"}, {"measurement": "M (log2 ratio of intensities) SMc01883 smc01883", "setting": "[2]; 1021 + 2,4-D vs untreated 1021", "value": "−0.8788"}, {"measurement": "M (log2 ratio of intensities) SMc02340 smc02340", "setting": "[2]; 1021 + 2,4-D vs untreated 1021", "value": "−1.408"}, {"measurement": "M (log2 ratio of intensities) SMc02498 atpH", "setting": "[2]; 1021 + 2,4-D vs untreated 1021", "value": "−1.251"}, {"measurement": "M (log2 ratio of intensities) SMc02692 rplY", "setting": "[2]; 1021 + 2,4-D vs untreated 1021", "value": "−0.8486"}, {"measurement": "M (log2 ratio of intensities) SMc02717 leuA1", "setting": "[2]; 1021 + 2,4-D vs untreated 1021", "value": "−0.8087"}, {"measurement": "M (log2 ratio of intensities) SMc02905 dnaX", "setting": "[2]; 1021 + 2,4-D vs untreated 1021", "value": "−0.7264"}, {"measurement": "M (log2 ratio of intensities) SMc03805 tesB", "setting": "[2]; 1021 + 2,4-D vs untreated 1021", "value": 0.9991}, {"measurement": "M (log2 ratio of intensities) SMc03859 rpsP", "setting": "[2]; 1021 + 2,4-D vs untreated 1021", "value": "−0.7104"}, {"measurement": "M (log2 ratio of intensities) SMc03979 gap", "setting": "[2]; 1021 + 2,4-D vs untreated 1021", "value": "−1.065"}, {"measurement": "M (log2 ratio of intensities) SMc04003 rpmJ", "setting": "[2]; 1021 + 2,4-D vs untreated 1021", "value": "−1.331"}]}]}
